Experimental data taken from publication PMC7883216 (Peptides, 2021).
Like-named read-outs stand apart in the source and are kept apart here.

What was measured:
[1] = in humans; cited from earlier work
[2] = Pharmacokinetics of exogenous mouse GIP; format: in vivo, female C57Bl/6Jrj mice; conditions: for peak intact GIP concentration as % of peak total GIP concentration: in-house RIAs; for increase of iAUC of intact GIP upon co-administration of Val-Pyr: P < 0.0001; for Clearance, corrected for body weight / Apparent volume of distribution corrected for body weight: IV 25 nmol/kg BW, mean ± SE, n = 6-9; for Clearance, corrected for body weight: CL = k*Vd
[3] = anaesthetized rats; cited from earlier work
[4] = female, C57Bl/6Jrj, mouse, plasma, iv, 25 nmol/kg BW

peak intact GIP concentration as % of peak total GIP concentration ([2]; IP injection 25 nmol/kg BW, with Val-Pyr)	peak intact GIP concentration as % of peak total GIP concentration ([2]; IP injection 25 nmol/kg BW, without Val-Pyr)	increase of iAUC of intact GIP upon co-administration of Val-Pyr ([2]; IP injection 25 nmol/kg BW, Fig. 1F)	peak intact GIP concentration as % of peak total GIP concentration ([2]; IV injection 25 nmol/kg BW, with Val-Pyr)	peak intact GIP concentration as % of peak total GIP concentration ([2]; IV injection 25 nmol/kg BW, without Val-Pyr, mean)	increase of iAUC of intact GIP upon co-administration of Val-Pyr ([2]; IV injection 25 nmol/kg BW, Fig. 1B)	peak intact GIP concentration as % of peak total GIP concentration ([2]; SC injection 25 nmol/kg BW, with Val-Pyr)	peak intact GIP concentration as % of peak total GIP concentration ([2]; SC injection 25 nmol/kg BW, without Val-Pyr)	increase of iAUC of intact GIP upon co-administration of Val-Pyr ([2]; SC injection 25 nmol/kg BW, Fig. 1D)	half-life [2, 4]	tissue uptake dose [2, 4]	tissue uptake dose ([2]; female, C57Bl/6Jrj, mouse, plasma, sc, 25 nmol/kg BW)	intact GIP levels as % of total GIP plasma concentrations ([2]; following SC and IP GIP administration without DPP-4 inhibitor)	Compound	plasma half-life [1]	Clearance, corrected for body weight ([2]; Val-Pyr co-administration)	Apparent volume of distribution corrected for body weight ([2]; Val-Pyr co-administration)	Clearance, corrected for body weight ([2]; placebo (no Val-Pyr))	Apparent volume of distribution corrected for body weight ([2]; placebo (no Val-Pyr), Vd = total dose/C0)	plasma half-life [3]
													human GIP(1–42): human GIP(1–42), half-life in humans quoted from ref 11	approximately 7 min					
82%	16%	7.8 fold	110%	41%	5.4 fold	82%	14%	8.1 fold	1.5 min	13 ± 1 %ID	10 ± 1 %ID	approximately 15%	CC[C@H](C)[C@H](NC(=O)[C@H](CO)NC(=O)[C@H](Cc1ccc(O)cc1)NC(=O)[C@H](CC(=O)O)NC(=O)[C@H](CO)NC(=O)[C@@H](NC(=O)[C@H](Cc1ccccc1)NC(=O)[C@@H](NC(=O)CNC(=O)[C@H](CCC(=O)O)NC(=O)[C@H](C)NC(=O)[C@@H](N)Cc1ccc(O)cc1)[C@@H](C)O)[C@@H](C)CC)C(=O)N[C@@H](C)C(=O)N[C@@H](CCSC)C(=O)N[C@@H](CC(=O)O)C(=O)N[C@@H](CCCCN)C(=O)N[C@H](C(=O)N[C@@H](CCCNC(=N)N)C(=O)N[C@@H](CCC(N)=O)C(=O)N[C@@H](CCC(N)=O)C(=O)N[C@@H](CC(=O)O)C(=O)N[C@@H](Cc1ccccc1)C(=O)N[C@H](C(=O)N[C@@H](CC(N)=O)C(=O)N[C@@H](Cc1c[nH]c2ccccc12)C(=O)N[C@@H](CC(C)C)C(=O)N[C@@H](CC(C)C)C(=O)N[C@@H](C)C(=O)N[C@@H](CCC(N)=O)C(=O)N[C@@H](CCCNC(=N)N)C(=O)NCC(=O)N[C@@H](CCCCN)C(=O)N[C@@H](CCCCN)C(=O)N[C@@H](CO)C(=O)N[C@@H](CC(=O)O)C(=O)N[C@@H](Cc1c[nH]c2ccccc12)C(=O)N[C@@H](CCCCN)C(=O)N[C@@H](Cc1c[nH]cn1)C(=O)N[C@@H](CC(N)=O)C(=O)N[C@H](C(=O)N[C@H](C(=O)N[C@@H](CCC(N)=O)C(=O)O)[C@@H](C)O)[C@@H](C)CC)C(C)C)[C@@H](C)CC [GIP(1–42)]	approximately 7 min	45 ± 4 µL/min/g	0.46 ± 0.03 mL/g	207 ± 16 µL/min/g	0.34 ± 0.1 mL/g	approximately 2 min
